Source: patent publication US6844364B2, “Stabilization of retinoid compounds” (Johnson & Johnson Consumer Companies, Inc., priority 2001, dated 2005)

Assay type: physicochemical
Method: Finsolv® TN is a C12-15 alkyl benzoate from Fintex, Inc. (Elmwood Park, N.J.) Miglyol® 812 from Huls AG (Marl, Germany) and Neobee® 1053 from Stepan Company (Northfield, Ill.) are each a caprylic/capric triglyceride.
The general procedure to prepare the above formulations is as follows. A 500 mg of Compound 1 was weighed and transferred into an 800 ml glass beaker containing 500 g of one of the above carriers. The formulation was then stirred with a paddle mixer (stirrer type RZR50 from Caframo in Wiarton, Ontario, Canada) at 100 RPM setting until the compound was completely dissolved/dispersed in the carrier.
About 20 g each of the resulting formulations were then packed into 24 clear glass scintillation vials of 20 ml volume (Wheaton Disposable Scintillation Vials from Wheaton Scientific in Milleville, N.J.) and labeled. Groups of eight of such vials were then stored at 4° C., RT (22° C.) and/or 40° C. for stability studies.
The samples of the formulations at each of the above three temperatures were then periodically analyzed for the chemical stability of Compound 1. The compound was assayed using high performance liquid chromatographic (HPLC) system. The results of this analysis is set forth in Table 2 setting forth the amount of Compound 1 remaining in the formulation following a certain number of days at specified temperatures.

CCCCCc1cc2c(cc1C(=O)Oc1ccc(C(=O)O)cn1)C(C)(C)CCC2(C)C [Compound I]
Stabilization of the compound in topical liquid or semisolid pharmaceutical formulations: None of these formulations, however, were capable of sufficiently stabilizing the compound
